The subject of one data set is RKO. As to the kind of experiment: Cytotoxicity against human RKO cells assessed as inhibition of cell proliferation incubated for 48 hrs by MTT assay. Type of data set: functional, cell-based. In general terms: Tetrazolium assays rely on reduction of a dye to a coloured formazan, in cell work by metabolically active cells.
A short description of data set [1]: Cytotoxicity against human HMLE cells assessed as inhibition of cell proliferation incubated for 48 hrs by MTT assay. It is filed as toxicity, cell-based.
Data set [2] concerns BT-549. As to the kind of experiment: Induction of cell cycle arrest in human BT-549 cells assessed as accumulation at G0/G1 phase at 5 uM incubated for 24 hrs by propidium iodide staining based flow cytometry (reference value: 22.97%). Type of data set: functional. A general note: A flow cytometer gives signals particle by particle.
The subject of another data set is NCI-H1299. As to the kind of experiment: Cytotoxicity against human NCI-H1299 cells assessed as inhibition of cell proliferation incubated for 48 hrs by MTT assay. Type of data set: functional, cell-based. To be noted: NCI-H1299, 48 h.
Another data set concerns HT-29. Briefly: Cytotoxicity against human HT-29 cells assessed as inhibition of cell proliferation incubated for 48 hrs by MTT assay. It is filed as functional, cell-based. To be noted: HT-29, 48 h.
Data set [3] has as its system BT-549. Briefly: Induction of cell cycle arrest in human BT-549 cells assessed as accumulation at G2/M phase at 5 uM incubated for 24 hrs by propidium iodide staining based flow cytometry (reference value: 22.59%). Type of data set: functional.
Data set [4] relates to BT-549. As to the kind of experiment: Potency index, ratio of cisplatin IC50 to test compound IC50 for cytotoxicity against human BT-549 cells. It is filed as functional.
For data set [5], the system named is BT-549. As to the kind of experiment: Induction of cell cycle arrest in human BT-549 cells assessed as accumulation at S phase at 5 uM incubated for 24 hrs by propidium iodide staining based flow cytometry (reference value: 50.87%). Type of data set: functional.
Data set [6] can be described thus: Selectivity ratio of IC50 for cytotoxicity against human HMLE cells to IC50 for cytotoxicity against human BT-549 cells. Type of data set: toxicity, cell-based. To be noted: HMLE cells and BT-549 cells, read-out: Ratio IC50.
The subject of a further data set is PC-9. Briefly: Cytotoxicity against human PC-9 cells assessed as inhibition of cell proliferation incubated for 48 hrs by MTT assay. It is filed as functional, cell-based. To be noted: PC-9, 48 h.
The subject of data set [7] is BT-549. Briefly: Cytotoxicity against human BT-549 cells assessed as inhibition of cell proliferation incubated for 48 hrs by MTT assay. Type of data set: functional, cell-based. To be noted: BT-549, 48 h.

The source of these data is ChEMBL document CHEMBL5120814, “Molecular Networking-Based Screening Led to the Discovery of a Cyclic Heptadepsipeptide from an Endolichenic Xylaria sp” (J Nat Prod, 2022).

pIC50: −log10 of the molar value.

Take `CC[C@H](C)[C@H]1NC(=O)[C@@H](CC(C)C)NC(=O)[C@@H](CC(C)C)N(C)C(=O)[C@@H]2CCCN2C(=O)[C@H](CC(C)C)NC(=O)[C@H](Cc2ccccc2)OC(=O)[C@@H]2CCCN2C1=O`: the pIC50 was 5.02 in the data set with RKO; 5.60 with NCI-H1299; 5.60 with HT-29; 5.60 with PC-9; 5.60 with BT-549 [7]. Besides, in [1], the IC50 at 48 h was found to be 7.3 µM. Also, the figures for the Activity in the data set on BT-549 [2], in the data set with BT-549 [3] and in the data set on BT-549 [5] were 41.84%, 18.34% and 32.49%, respectively. Moreover, the “Ratio IC50” value with BT-549 [4] is on record as 3.4. The selectivity ratio in [6] came out at 3.

One may read the pIC50 as the negative decadic logarithm of the IC50, by convention in mol/L. The term IC50 denotes the concentration that gives 50% inhibition.
